How the values were obtained:
[1] = system: MATIN; assay: Herbicidal post-emergence action 1b (twin sowing, 1280 g/ha); assay type: in vivo, Matricaria inodora; details: dosage 1280 g/ha, visual rating about 3 weeks after treatment
Summary of the method: (§1)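 Post-emergence foliar spray on one-leaf weeds grown two species per pot in sandy loam; ~3 weeks later, visual rating from 0% (as control) to 100% (plants died).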

[2] = system: ECHCG; assay: as above; assay type: in vivo, Echinochloa crus-galli; details: dosage 1280 g/ha, visual rating about 3 weeks after treatment
Summary of the method: as §1

[3] = system: STEME; assay: as above; assay type: in vivo, Stellaria media; details: dosage 1280 g/ha, visual rating about 3 weeks after treatment
Summary of the method: as §1

[4] = system: ECHCG; assay: Herbicidal pre-emergence action 2b (doubly sown, 1280 g/ha); assay type: in vivo, Echinochloa crus-galli; details: doubly sown pots, dosage 1280 g/ha, visual scoring after about 3 weeks
Summary of the method: (§2)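 Seeds are placed in sandy loam and covered, then the formulated compound is applied to the covering soil in water equivalent to 600 litres per hectare with 0.5% additive. Pots stay in the greenhouse under good growth conditions. Activity is rated visually as a percentage of untreated controls after about three weeks.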

[5] = system: ABUTH; assay: Herbicidal post-emergence action 1b (twin sowing, 1280 g/ha); assay type: in vivo, Abutilon theophrasti; details: dosage 1280 g/ha, visual rating about 3 weeks after treatment
Summary of the method: as §1

[6] = system: AMARE; assay: Herbicidal pre-emergence action 2b (doubly sown, 1280 g/ha); assay type: in vivo, Amaranthus retroflexus; details: doubly sown pots, dosage 1280 g/ha, visual scoring after about 3 weeks
Summary of the method: as §2

[7] = system: MATIN; assay: Herbicidal post-emergence action 1a (greenhouse pots, visual rating); assay type: in vivo, Matricaria inodora; details: visual rating about 3 weeks after treatment
Summary of the method: (§3)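 Weeds and crops sown in sandy loam in greenhouse pots were sprayed post-emergence at the one-leaf stage (2–3 weeks after sowing) with WP or EC formulations plus 0.5% additive at 600 l/ha water, 320 and/or 80 g/ha. About 3 weeks later damage was rated visually against untreated controls (0% = no effect, 100% = dead).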

[8] = system: POAAN; assay: Herbicidal post-emergence action 1b (twin sowing, 1280 g/ha); assay type: in vivo, Poa annua; details: dosage 1280 g/ha, visual rating about 3 weeks after treatment
Summary of the method: as §1

[9] = system: ECHCG; assay: Herbicidal post-emergence action 1a (greenhouse pots, visual rating); assay type: in vivo, Echinochloa crus-galli; details: rated visually about 3 weeks after treatment, 100% = plants have died, 0% = like control plants
Summary of the method: as §3

[10] = system: DIGSA; assay: as above; assay type: in vivo, Digitaria sanguinalis; details: rated visually about 3 weeks after treatment, 100% = plants have died, 0% = like control plants
Summary of the method: as §3

[11] = system: POLCO; assay: Herbicidal pre-emergence action 2a (greenhouse pots, visual scoring); assay type: in vivo, Polygonum convolvulus; details: dosage 320 g/ha, visual scoring after about 3 weeks vs untreated controls
Summary of the method: (§4)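 Dose levels were 320 g/ha and/or 80 g/ha, delivered as an aqueous spray of wettable powder or emulsion concentrate plus 0.5% additive onto soil over sown seeds. Plants grew under good greenhouse conditions for about 3 weeks before visual percentage rating versus untreated pots.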

[12] = system: DIGSA; assay: Herbicidal pre-emergence action 2b (doubly sown, 1280 g/ha); assay type: in vivo, Digitaria sanguinalis; details: doubly sown pots, dosage 1280 g/ha, visual scoring after about 3 weeks
Summary of the method: as §2

[13] = system: PHBPU; assay: Herbicidal pre-emergence action 2a (greenhouse pots, visual scoring); assay type: in vivo, Pharbitis purpurea; details: dosage 320 g/ha, visual scoring after about 3 weeks vs untreated controls
Summary of the method: as §4

[14] = system: DIGSA; assay: Herbicidal post-emergence action 1b (twin sowing, 1280 g/ha); assay type: in vivo, Digitaria sanguinalis; details: dosage 1280 g/ha, visual rating about 3 weeks after treatment
Summary of the method: as §1

Row | SMILES | Post-emergence action at 1280 g/ha against MATIN in % [1] | Post-emergence action at 1280 g/ha against ECHCG in % [2] | Post-emergence action at 1280 g/ha against STEME in % [3] | Pre-emergence action at 1280 g/ha against ECHCG in % [4] | Post-emergence action at 1280 g/ha against ABUTH in % [5] | Pre-emergence action at 1280 g/ha against AMARE in % [6] | Post-emergence action against MATIN in % ([7]; dosage 320 g/ha) | Post-emergence action at 1280 g/ha against POAAN in % [8] | Post-emergence action against ECHCG in % ([9]; Dosage 320 g/ha) | Post-emergence action against DIGSA in % ([10]; Dosage 320 g/ha) | Pre-emergence action against POLCO in % [11] | Pre-emergence action at 1280 g/ha against DIGSA in % [12] | Pre-emergence action against PHBPU in % [13] | Post-emergence action at 1280 g/ha against DIGSA in % [14] | Post-emergence action against DIGSA in % ([10]; Dosage 80 g/ha) | Post-emergence action against MATIN in % ([7]; dosage 80 g/ha) | Post-emergence action against ECHCG in % ([9]; Dosage 80 g/ha)
1 | COC(=O)C(C)Oc1nn(-c2cnccn2)c(-c2ccc(F)c(F)c2)c1Br (racemic) [Example I-16] | 90% | 100% | 100% | 100% | 90% | 100% | 80% | 100% | 90% | 90% | 90% |  |  |  |  |  | 
2 | COC(=O)C(C)Oc1nn(-c2cnccn2)c(-c2ccc(F)c(F)c2)c1C#N (racemic) [Example I-22] | 90% |  | 100% | 100% |  | 100% | 80% | 100% |  | 80% | 80% |  |  |  |  |  | 
3 | COC(=O)COc1nn(-c2cnccn2)c(-c2ccc(F)nc2)c1Br [Example I-11] |  | 90% | 90% | 90% | 90% | 100% | 80% | 100% | 80% |  | 90% | 90% | 90% | 100% |  |  | 
4 | COC(=O)COc1nn(-c2cnccn2)c(-c2ccc(F)c(F)c2)c1Br [Example I-15] |  |  |  |  |  |  | 80% |  | 90% | 90% |  |  | 90% |  |  |  | 
5 | COC(=O)[C@@H](C)Oc1nn(-c2cnccn2)c(-c2cccc(F)c2)c1Br [Example I-20] | 100% | 100% | 100% | 100% | 90% | 100% |  | 100% | 80% | 90% | 80% |  |  |  | 80% |  | 
6 | COC(=O)[C@@H](C)Oc1nn(-c2cnccn2)c(-c2ccnc(F)c2)c1Br [Example I-34] | 90% | 100% | 100% | 90% |  | 100% | 90% | 100% |  | 80% | 100% | 100% |  | 100% |  |  | 
7 | COC(=O)[C@@H](C)Oc1nn(-c2cnccn2)c(-c2ccc(F)nc2)c1Cl [Example I-36] | 90% | 100% | 100% | 90% | 90% | 100% | 80% | 100% |  | 90% | 100% | 100% |  | 100% | 80% |  | 
8 | C[C@H](Oc1nn(-c2cnccn2)c(-c2cncc(F)c2)c1Br)C(=O)O [Example I-37] | 90% | 100% | 100% | 100% | 90% | 100% | 80% | 100% | 90% | 90% | 100% | 100% |  | 100% |  |  | 
9 | COC(=O)[C@@H](C)Oc1nn(-c2cnccn2)c(-c2cncc(F)c2)c1C#N [Example I-40] | 100% |  | 100% | 100% |  | 100% |  | 100% |  | 80% | 80% | 100% |  | 90% |  |  | 
10 | COC(=O)[C@@H](C)Oc1nn(-c2cnccn2)c(-c2ccc(F)c(F)c2)c1Br [Example I-45] |  | 100% | 100% | 100% | 90% | 100% | 80% | 100% | 80% |  | 100% | 100% |  | 100% |  |  | 
11 | CCOC(=O)COc1nn(-c2cnccn2)c(-c2ccc(F)nc2)c1Br [Example I-52, ethyl {[4-bromo-5-(6-fluoropyridin-3-yl)-1-(pyrazin-2-yl)-1H-pyrazol-3-yl]oxy}acetate] | 90% |  |  |  |  | 90% |  |  | 80% |  | 80% | 100% | 100% |  |  |  | 
12 | CCOC(=O)COc1nn(-c2cnccn2)c(-c2ccc(F)nc2)c1Cl [Example I-53] | 100% | 100% | 100% | 100% | 90% | 100% |  | 100% |  |  | 90% | 100% |  | 100% | 90% | 80% | 80%

From patent publication US20230167088A1, “1-PYRAZINYLPYRAZOLYL-3-OXYALKYL ACIDS AND THEIR DERIVATIVES, AND THEIR USE FOR CONTROL OF UNDESIRED PLANT GROWTH” (BAYER AKTIENGESELLSCHAFT, priority 2020, published 2023)
